Assay results reported in US4397858A, “Treatment of rheumatism and arteriosclerosis with n-halogenophenyl-benzisothiazoles” (A. Nattermann & Cie GmbH, priority 1980, dated 1983).

How the values were obtained:
rats [1] = test: Rat paw oedema test (HILLEBRECHT), carragenin; format: in vivo; settings: 3 hours, relative to control group
Experimental: Determination of antiphlogistic activity by HILLEBRECHT's rat paw oedema test (J. HILLEBRECHT, Arzeim. Forsch. 1954, Vol. 4, page 607). An oedema was produced in one of the rear paws of rats weighing from 120 g to 150 g by the subplantar injection of carragenin (0.5% in a 0.9% NaCl-solution) in a quantity of 0.1 ml of solution per paw. After administration of the test substance, which generally should not exceed a volume of 10 ml per kg of body weight, the volume of the paw is determined in an overflow. After 3 hours, the final value is determined. For each dose, the test is carried out with 10 test animals and 10 control animals of one sex and repeated with the same number of animals of the other sex. For the purposes of evaluation, inhibition of the oedema is expressed as a percentage on relation to the control group.

rats [2] = test: Granuloma test (Cotton pellet test) according to R. MEIER; format: in vivo; settings: rat
Excerpt: Granuloma test (Cotton pellet test) according to R. MEIER et al. Experientia 6, 469 (1950)
In this test, cottonwool pellets impregnated with croton oil were implanted subcutaneously in the test animals (rats) to induce the formation of granulomas in the connective tissue. After the animals had been killed, the granulomas were excised and weighed moist or dry. The anti-proliferative effect of an antiphlogistic is reflected in light weights of the granulomas by comparison with untreated controls.

Wistar rats = test: Adjuvant arthritis (C. M. PEARSON), Freund's adjuvant; format: in vivo, Wistar rat; settings: rat
Experimental: 3. Adjuvant arthritis (C. M. PEARSON, proc.Soc.exp.Biol. 91, 95-101 (1956)
10 Wistar rats weighing from 120 g to 150 g are used per dose. The same number of animals is used for control purposes. An arthritis is induced by the administration of 0.5 ml of Freund's adjuvant by subplantar injection. The test lasts 17 days. At the beginning of the test, the paw volume of all four extremities is determined and used as the starting value. […] For evaluation purposes, the difference between the starting volume and final volume of the paws both of the test group and of the control group is calculated and inhibition expressed as a percentage.

[3] = tested on: stomach mucosa of Wistar rats; test: Ulcer test (ulcer-inducing effect in rats); format: in vivo, Wistar rat; settings: rat
Experimental: J. Toxicol. […] A bleeding stomach ulcer is induced by oral administration of the active principle. After 3.5 hours, the animals are killed, their stomachs removed, cut open along the major curvature and stretched across a Styropor plate. The frequency and extent of average ulcer formation in the test and control groups is determined.

[4] = Toxicity, mice, oral (lethality); settings: mouse, in vivo
[5] = 1.0 mg/kg p.o. (printed 1 for Indometacin)
[6] = 1 mg/kg p.o. (1.0 for Indometacin), 7th day p.i.
[7] = 1 mg/kg p.o. (1.0 for Indometacin), 14th day p.i.
[8] = 1 mg/kg p.o. (1.0 for Indometacin), 17th day p.i.

O=c1c2ccccc2sn1-c1ccc(Cl)cc1 [2-(4-chlorophenyl)-1,2-benzisothiazol-3(2H)-one]
Oedema inhibition (rats [1]; 0.01 mg/kg p.o.): -13% | Oedema inhibition (rats [1]; 0.1 mg/kg p.o.): -22% | Oedema inhibition (rats [1]; 1.0 mg/kg p.o.): -36% | Reduction in weight of the granulomas (rats [2]; 0.1 mg/kg p.o.): -26% | Reduction in weight of the granulomas (rats [2]; [5]): -43% | Reduction in weight of the granulomas (rats [2]; 10 mg/kg p.o.): -44% | Inhibition (adjuvant arthritis, paw volume) (Wistar rats; [6]): -27% | Inhibition (adjuvant arthritis, paw volume) (Wistar rats; [7]): -44% | Inhibition (adjuvant arthritis, paw volume) (Wistar rats; [8]): -45% | Inhibition (adjuvant arthritis, paw volume) (Wistar rats; 3.2 mg/kg p.o., 7th day p.i.): -46% | Inhibition (adjuvant arthritis, paw volume) (Wistar rats; 3.2 mg/kg p.o., 14th day p.i.): -51% | Inhibition (adjuvant arthritis, paw volume) (Wistar rats; 3.2 mg/kg p.o., 17th day p.i.): -56% | Ulcer-inducing effect ([3]; 1 mg/kg p.o., 3.5 hours): 0 | Ulcer-inducing effect ([3]; 10 mg/kg p.o., 3.5 hours): 0 | Ulcer-inducing effect ([3]; 100 mg/kg p.o., 3.5 hours): 0 | mortality ([4]; 3 160 mg/kg p.o.): 0%

COc1ccc2c(c1)c(CC(=O)O)c(C)n2C(=O)c1ccc(Cl)cc1 [Indometacin, 1-(p-chlorobenzoyl)-5-methoxy-2-methyl-3-indole acetic acid, reference compound]
Oedema inhibition (rats [1]; 3.8 mg/kg p.o.): -26% | Oedema inhibition (rats [1]; 5.6 mg/kg p.o.): -45% | Reduction in weight of the granulomas (rats [2]; [5]): -21% | Reduction in weight of the granulomas (rats [2]; 3.2 mg/kg p.o.): -7% | Reduction in weight of the granulomas (rats [2]; 5.6 mg/kg p.o.): -6% | Inhibition (adjuvant arthritis, paw volume) (Wistar rats; 0.32 mg/kg p.o., 7th day p.i.): -20% | Inhibition (adjuvant arthritis, paw volume) (Wistar rats; 0.32 mg/kg p.o., 14th day p.i.): -26% | Inhibition (adjuvant arthritis, paw volume) (Wistar rats; 0.32 mg/kg p.o., 17th day p.i.): -33% | Inhibition (adjuvant arthritis, paw volume) (Wistar rats; [6]): -50% | Inhibition (adjuvant arthritis, paw volume) (Wistar rats; [7]): -40% | Inhibition (adjuvant arthritis, paw volume) (Wistar rats; [8]): -40% | Ulcer-inducing effect ([3]; in vivo, po, 3.2 mg/kg): ++ | Ulcer-inducing effect ([3]; in vivo, po, 5.6 mg/kg): +++ | Ulcer-inducing effect ([3]; in vivo, po, 7.5 mg/kg): +++ | mortality ([4]; 38 mg/kg p.o.): 50%
